Test results from publication PMC3820767, “Turning Defense into Offense: Defensin Mimetics as Novel Antibiotics Targeting Lipid II” (PLoS Pathogens, 2013).
pIC50, pKd: −log10 of the molar value. Values after ≈ are worked out from the molar mass of the structure shown. Like-named read-outs stand apart in the source and are kept apart here.

Tests used:
[1] = test system: Streptococcus pneumonia (PRSP) MMX884; test: Broth microdilution susceptibility testing (CLSI); format: cell-based, Streptococcus pneumoniae
Protocol: (§1) The antibacterial activity of defensin mimetics against Staphylococcus aureus ATCC 29213 and Escherichia coli 25922 was carried out in a 96-well turbidimetric assay essentially as described previously with the following modifications: bacteria were exposed for 30 min to compounds in 10 mM phosphate buffer containing 5% DMSO prior to addition of 2× Muller-Hinton medium. Bacterial growth was monitored for 12 hours and data were analyzed as described. Determination of MICs was performed by Micromyx, LLC (Kalamazoo, Michigan) according to CLSI standards.

Jurkat = test: Cytotoxicity by MTT assay; format: cell-based, human
[2] = test system: Staphylococcus aureus (MRSA) MMX757; test: Broth microdilution susceptibility testing (CLSI); format: cell-based
Protocol: as §1

[3] = test system: Enterococcus faecalis (VRE) MMX848; test: Broth microdilution susceptibility testing (CLSI); format: cell-based
Protocol: as §1

[4] = test system: Enterococcus faecalis MMX101-ATCC 29212; test: Broth microdilution susceptibility testing (CLSI); format: cell-based
Protocol: as §1

[5] = test system: Staphylococcus aureus MMX100-ATCC 29213; test: Broth microdilution susceptibility testing (CLSI); format: cell-based
Protocol: as §1

[6] = test system: Streptococcus pneumoniae MMX1195-ATCC 49619; test: Broth microdilution susceptibility testing (CLSI); format: cell-based
Protocol: as §1

[7] = test system: Pseudomonas aeruginosa MMX103-ATCC 27853; test: Broth microdilution susceptibility testing (CLSI); format: cell-based
Protocol: as §1

[8] = test system: Escherichia coli MMX102-ATCC 25922; test: Broth microdilution susceptibility testing (CLSI); format: cell-based
Protocol: as §1

[9] = test system: Staphylococcus aureus ATCC 29213; test: Antibacterial killing, 96-well turbidimetric (modified vCC) assay; format: cell-based; details: for active against S.aureus (IC100%): Table S3, concentration at which 100% killing occurred, no bacterial regrowth, No = not active; for Bacterial Killing S. aureus: concentration resulting in 100% killing after 30 min exposure, modified vCC assay
Protocol: as §1

[10] = test system: Escherichia coli ATCC 25922; test: as above; format: cell-based; details: for active against E.coli (IC100%): Table S3, concentration at which 100% killing occurred, no bacterial regrowth, No = not active; for Bacterial Killing E. coli: concentration resulting in 100% killing after 30 min exposure, modified vCC assay
Protocol: as §1

Caco-2 = test: Cytotoxicity by MTT assay; format: cell-based, human
[11] = Surface Plasmon Resonance binding to immobilized 3-Lipid II; details: SPR; for Binding on Lipid II?: Table S3, initial determination at 10 µM; for pKd: immobilized 3-Lipid II
Protocol: Surface Plasmon Resonance binding experiments were carried out on a BIAcore T100 system (BIAcore Inc., Piscataway, NY) at 25°C. The assay buffer was 10 mM HEPES, 150 mM NaCl, 0.05% surfactant P20, pH 7.4 (±3 mM EDTA) supplemented with 10% DMSO. […] For initial determination of binding, defensin mimetics were introduced into the flow-cells (30 µl/min) in the running buffer at 10 µM. Resonance signals were corrected for nonspecific binding by subtracting the background of the control flow-cell. After each analysis, the sensor chip surfaces were regenerated with 50 mM NaOH for 30 s at a flow rate 100 µl/min, and equilibrated with the buffer prior to next injection. For binding kinetics studies, binding isotherms were analyzed with manufacturer-supplied software for BIAcore T100.

[12] = Cytotoxicity by MTT assay; format: cell-based, human; details: human, Caco-2 cells; Table S3; No = not cytotoxic; read-out: cytotoxic for Caco II (C50% survival)
[13] = test system: Staphylococcus aureus ATCC 29213; test: Antagonization of defensin antibacterial activity by 3-Lipid II; format: cell-based; details: 50 µM defensin pre-incubated with 3-Lipid II at 1:1 molar ratio
Protocol: Antagonization of the antibacterial activity of defensins against Staphylococcus aureus ATCC 29213 was carried out in a 96-well turbidimetric assay essentially as described previously. Defensins (50 µM final concentration) were pre-incubated with 3-Lipid II at 1∶1, 1∶2.5 and 1∶5 defensin: Lipid II molar ratios for 30 min at RT. Following incubation, solutions were diluted two-fold in ten steps and bacteria were added. Defensin activity was neutralized by the addition of Mueller Hinton broth. Bacterial growth was monitored for 12 hours and data were analyzed as described.

| Compound | MIC Streptococcus pneumonia (PRSP) 884-NA [1] [µg/mL] | MIC Staphylococcus aureus (MRSA) 757-NA [2] [µg/mL] | MIC Enterococcus faecalis (VRE) 848-NA [3] [µg/mL] | MIC Enterococcus faecalis 101-29212 [4] [µg/mL] | MIC Staphylococcus aureus 100-29213 [5] [µg/mL] | MIC Streptococcus pneumoniae 1195-49619 [6] [µg/mL] | MIC Pseudomonas aeruginosa 103-27853 [7] [µg/mL] | MIC Escherichia coli 102-25922 [8] [µg/mL] | Binding on Lipid II? [11] | pKd [11] | pIC50 (Jurkat) | active against S.aureus (IC100%) [9] | Bacterial Killing S. aureus [9] [µM] | active against E.coli (IC100%) [10] | Bacterial Killing E. coli [10] [µM] | pIC50 (Caco-2) | other results |
| --- | --- | --- | --- | --- | --- | --- | --- | --- | --- | --- | --- | --- | --- | --- | --- | --- | --- |
| CN(C)c1ccc(/C=C/c2cc(C(C)(C)C)[o+]c(C(C)(C)C)c2)cc1 [Compound 1493-0289, 2,6-di-tert-butyl-4-[(E)-2-[4-(dimethylamino)phenyl]ethenyl]-1$l^4-pyran-1-ylium] | 16 | 2 | 4 | 2 | 1 | 16 | >8 | >8 | Yes | 5.37 | 4.38 | 3,9 µM | 3.9 | 125 µM | 125 | 5.17 |  |
| Oc1ccccc1Oc1c(F)c(F)c(-c2c(F)c(F)c(Oc3ccccc3O)c(F)c2F)c(F)c1F [Compound 1611-0203, 2-{2,3,5,6-tetrafluoro-4-[2,3,5,6-tetrafluoro-4-(2-hydroxyphenoxy)phenyl]phenoxy}phenol] | >16 | 2 (≈ 3.89 µM) | 1 (≈ 1.94 µM) | 1 (≈ 1.94 µM) | 2 (≈ 3.89 µM) | >16 | >4 | >4 |  | 4.22 |  | 3,9 µM | 3.9 |  | >500 |  | pIC50 (Jurkat; concentration resulting in 50% cell survival, MTT, 4 h, read-out: Cytotoxicity (C50%) Jurkat): 4.20; pIC50 (Caco-2; concentration resulting in 50% cell survival, MTT, 24 h, read-out: Cytotoxicity (C50%) Caco-2): 5.38 |
| CC(=O)NC[C@H]1CN(c2ccc(N3CCOCC3)c(F)c2)C(=O)O1 [Linezolid, reference compound] |  |  |  |  |  |  |  |  |  |  |  |  |  |  |  |  | MIC ([1]; Streptococcus pneumoniae, PRSP, read-out: MIC Streptococcus pneumonia (PRSP) 884-NA): 2 µg/mL (≈ 5.93 µM); MIC ([2]; Staphylococcus aureus, MRSA, read-out: MIC Staphylococcus aureus (MRSA) 757-NA): 4 µg/mL (≈ 11.9 µM); MIC ([3]; Enterococcus faecalis, VRE, read-out: MIC Enterococcus faecalis (VRE) 848-NA): 2 µg/mL (≈ 5.93 µM); MIC ([4]; Enterococcus faecalis, ATCC29212, read-out: MIC Enterococcus faecalis 101-29212): 2 µg/mL (≈ 5.93 µM); MIC ([5]; Staphylococcus aureus, ATCC29213, read-out: MIC Staphylococcus aureus 100-29213): 4 µg/mL (≈ 11.9 µM); MIC ([6]; Streptococcus pneumoniae, ATCC49619, read-out: MIC Streptococcus pneumoniae 1195-49619): 2 µg/mL (≈ 5.93 µM); MIC ([7]; Pseudomonas aeruginosa, ATCC27853, read-out: MIC Pseudomonas aeruginosa 103-27853): > 64 µg/mL; MIC ([8]; Escherichia coli, ATCC25922, read-out: MIC Escherichia coli 102-25922): > 64 µg/mL |
| HNP-1: chemically synthesized wild-type human alpha-defensin Human Neutrophil peptide-1 |  |  |  |  |  |  |  |  |  |  |  |  |  |  |  |  | antagonization of bactericidal activity by Lipid II [13]: partly antagonized by one order of magnitude |

More lines, main results first:

| MIC Streptococcus pneumonia (PRSP) 884-NA [1] [µg/mL] | MIC Staphylococcus aureus (MRSA) 757-NA [2] [µg/mL] | MIC Enterococcus faecalis (VRE) 848-NA [3] [µg/mL] | MIC Enterococcus faecalis 101-29212 [4] [µg/mL] | MIC Staphylococcus aureus 100-29213 [5] [µg/mL] | MIC Streptococcus pneumoniae 1195-49619 [6] [µg/mL] | MIC Pseudomonas aeruginosa 103-27853 [7] [µg/mL] | MIC Escherichia coli 102-25922 [8] [µg/mL] | Binding on Lipid II? [11] | pKd [11] | Compound | pIC50 (Jurkat) | active against S.aureus (IC100%) [9] | Bacterial Killing S. aureus [9] [µM] | active against E.coli (IC100%) [10] | Bacterial Killing E. coli [10] [µM] | pIC50 (Caco-2) | other results |
| --- | --- | --- | --- | --- | --- | --- | --- | --- | --- | --- | --- | --- | --- | --- | --- | --- | --- |
| >8 | 2 | 16 | 16 | 2 | >8 | >64 | 64 | No |  | CC[n+]1c(/C=C2C=C(/C=C/N(C)c3ccccc3)CC(C)(C)C/2)sc2ccccc21 [Compound 4090-1978, 2-{[(1E)-5,5-dimethyl-3-[(E)-2-[methyl(phenyl)amino]ethenyl]cyclohex-2-en-1-ylidene]methyl}-3-ethyl-1,3-benzothiazol-3-ium] | 4.06 | 15,625 µM | 15.6 | 62,5 µM | 62.5 | 4.78 |  |
|  |  |  |  |  |  |  |  | No |  | OCC1c2ccccc2-c2ccccc21 [Compound 4121-0081, 9H-fluoren-9-ylmethanol] |  | No |  | No |  |  | pIC50 [12]: 3.70 |
| 16 (≈ 38.9 µM) | 1 (≈ 2.43 µM) | 1 (≈ 2.43 µM) | 1 (≈ 2.43 µM) | 1 (≈ 2.43 µM) | 8 (≈ 19.5 µM) | >32 | >32 | Yes | 4.40 | Oc1ccc2ccccc2c1C(c1ccc(Cl)cc1)c1c(O)ccc2ccccc12 [Compound 363003] | 4.90 | 3,9 µM | 3.9 | No | >500 | 5.46 |  |
| >64 | 16 | 16 | 16 | 16 | >64 | >16 | >16 | Yes | 5.44 | CC[n+]1c(/C=C/C=C2C=C(/C=C/N(C)c3ccccc3)CC(C)(C)C/2)sc2ccccc21.[I-] [Compound 5107930, 2-[(1E)-3-[(1E)-5,5-dimethyl-3-[(E)-2-[methyl(phenyl)amino]ethenyl]cyclohex-2-en-1-ylidene]prop-1-en-1-yl]-3-ethyl-1,3-benzothiazol-3-ium iodide] | < 3.65 |  | 23.4 | 125 µM | 125 | 4.55 |  |
